Assay results as given in US20240218022A1, “ANTI-VISTA MACROCYCLIC PEPTIDES AND COMPOSITIONS” (BRISTOL-MYERS SQUIBB COMPANY, priority 2022, published 2024).
Where two headings read alike, the source gives them in different places. Starred links: 1 amine or outer side, 2 acyl side, 3 side chain; linkers in the order of their positions; H or OH if unused. Positions of bridges follow the written chain, without caps; N, C: chain ends. Non-standard residues stand in square brackets, D forms with d. Residues, ends and D or L forms follow the SMILES beside them. *: point of attachment. Phe(4-CONH2) = NC(=O)c1ccc(C[C@H](N)C(=O)O)cc1; γGlu = O=C(O)[C@H](CCC(=O)[*:2])N[*:1]; 2Nal = N[C@@H](Cc1ccc2ccccc2c1)C(=O)O; βAsp = O=C(O)[C@H](CC(=O)[*:2])N[*:1]; Cit = NC(=O)NCCC[C@H](N)C(=O)O; NMeL = CN[C@@H](CC(C)C)C(=O)O; Ahp(2) = CCCCC[C@H](N)C(=O)O; NMeNle = CCCC[C@H](NC)C(=O)O; Tle = CC(C)(C)[C@H](N)C(=O)O; NMeV = CN[C@H](C(=O)O)C(C)C; NHexGly = CCCCCCNCC(=O)O; Nle = CCCC[C@H](N)C(=O)O; Aun = NCCCCCCCCCCC(=O)O; Dab = NCC[C@H](N)C(=O)O; AEEA = NCCOCCOCC(=O)O; Allyl = C=CC*

Target: T1, mouse VISTA (mVISTA) (Mus musculus, UniProt Q9D659)
T1 construct: expressed in transfected cells; host or cells: Human embryonic kidney 293T cells
T1 sequence (Q9D659 33-308): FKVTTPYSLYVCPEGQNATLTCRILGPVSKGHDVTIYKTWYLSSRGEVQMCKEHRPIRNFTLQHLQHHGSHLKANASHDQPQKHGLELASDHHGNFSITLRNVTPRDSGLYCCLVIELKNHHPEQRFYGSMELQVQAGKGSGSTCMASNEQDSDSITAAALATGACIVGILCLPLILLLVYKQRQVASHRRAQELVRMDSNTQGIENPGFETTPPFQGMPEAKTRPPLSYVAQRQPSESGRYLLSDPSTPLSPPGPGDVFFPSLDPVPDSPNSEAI
Test: Cell-Based Binding High-Content Assay For mVISTA (HC CBA mVISTA)
Method: Cell-Based Binding High-Content Assay For mVISTA
Human embryonic kidney 293T cells (293T) expressing mouse VISTA (mVISTA) were used for the assessment of compounds competing with the binding of a biotinylated peptide. Cryopreserved cells were thawed in a 37° C. water bath and incubated overnight at a 37° C./5% CO2 incubator in assay culture media DMEM (Life Technologies Inc. Cat. No. 11995-126) supplemented with 10% (v/v) FBS (Sigma, Cat. No. F4135), 1× Penicillin/Streptomycin (Life Technologies Inc. Cat. No. 15140-122). Cells were harvested, washed and resuspended in DMEM media […]. To test compounds under “no-wash” condition, cells were seeded into PDL-coated 384 well plates (Corning, Cat. No. 356663) at 4,000 cells/20 μL. After incubating the cell plates for two hours at a 37° C./5% CO2 incubator, 125 nL of test compound was added using an ECHO. Alternatively, to test compounds under “wash” condition, test compounds were added first, followed by addition of 20 μL cells at a density of 4000 cells/well. After incubation for an hour, the media was removed, followed by addition of 20 μL of fresh media ( ), and plates were then incubated for another hour. To plates either under “no wash” or “wash” condition, the biotinylated peptide was added to a final concentration of 2 nM, and plates were incubated at room temperature for 30 minutes. Fifteen (15) μL of Alexa 647 conjugated Streptavidin (Life Tech, Cat. No. S21374), suspended at 2 μg/ml in media, was added to the assay plate and incubate for 30 minutes. Cells were fixed by adding 15 μL of formaldehyde at a final concentration of 8% (w/v) (Sigma Cat. No. 252549), 20 μg/mL Hoechst (Thermo Scientific Cat. No. 62249) in PBS for 10 minutes at room temperature. The plates were washed 3 times in dPBS, sealed, and read on a CellInsight NXT High Content Screening Platform IC903000 (Thermo Scientific). The 50% effective concentration (IC50) was calculated using the four-parameter logistic formula y=A+((B−A)/(1+((C/x)^D))), where A and B denote minimal and maximal % inhibition, respectively, C is the EC50, D is hill slope and x represent compound concentration.

[1] = cell-based binding high-content assay, mVISTA, read-out: HC CBA miPr ISTA IC50

Row | Compound | IC50 (read-out: HC CBA mVISTA IC50) | also measured
1 | CCCCCCN1CC(=O)N[C@@H](Cc2ccc(O)cc2)C(=O)N[C@@H](CCCCC)C(=O)NCC(=O)N[C@@H](CCCNC(=N)N)C(=O)N[C@@H](CC(C)C)C(=O)N[C@@H](CCCCC)C(=O)N2CCC[C@H]2C(=O)N[C@@H](C(C)C)C(=O)N[C@@H](CO)C(=O)N[C@H](C(=O)NCCOCCOCC(=O)N[C@@H](CC(=O)NCCOCCOCC(=O)NCCCCCCCCCCC(=O)O)C(=O)O)CSCC(=O)N[C@@H](Cc2ccccc2)C(=O)N[C@@H](Cc2ccc(O)cc2)C(=O)N[C@@H](CC(=O)O)C1=O [Example 2199] ({CH2CO}-FYD[NHexGly]Y[Ahp(2)]GRL[Ahp(2)]PVSC[AEEA][βAsp][AEEA][Aun]-OH; thioether N-14) | 18.3 nM | 
2 | CCCCCCN1CC(=O)N[C@@H](Cc2ccc(O)cc2)C(=O)N[C@@H](CC(C)C)C(=O)N[C@@H](CC(N)=O)C(=O)N[C@@H](CCCNC(=N)N)C(=O)N(C)[C@@H](CCCC)C(=O)N[C@@H](CCCCC)C(=O)N2CCC[C@H]2C(=O)N[C@@H](C(C)(C)C)C(=O)N[C@@H](CO)C(=O)N[C@H](C(=O)N[C@@H](CC(=O)NCCOCCOCC(=O)N[C@@H](CC(=O)O)C(=O)NCCOCCOCC(=O)NCCCCCCCCCCC(=O)O)C(=O)O)CSCC(=O)N[C@@H](Cc2ccc(C(N)=O)cc2)C(=O)N[C@@H](Cc2c[nH]c3ccccc23)C(=O)N[C@@H](CC(=O)O)C1=O [compound 2090] ({CH2CO}-[Phe(4-CONH2)]WD[NHexGly]YLNR[NMeNle][Ahp(2)]P[Tle]SC[βAsp][AEEA]D[AEEA][Aun]-OH; thioether N-14) |  | IC50 (cell-based binding high-content assay, mVISTA, read-out: HC CBA miPrISTA IC50): 34.4 nM
3 | CCCCCCN1CC(=O)N[C@@H](Cc2ccc(O)cc2)C(=O)N[C@@H](CCCC)C(=O)N[C@@H](CC(N)=O)C(=O)N[C@@H](CCCNC(=N)N)C(=O)N[C@@H](CCCCN)C(=O)N[C@@H](CCCCC)C(=O)N2CCC[C@H]2C(=O)N[C@@H](C(C)(C)C)C(=O)N[C@@H](CC(=O)O)C(=O)N[C@H](C(=O)NCCOCCOCC(=O)N[C@@H](CCC(=O)NCCOCCOCC(=O)NCCCCCCCCCCC(=O)O)C(=O)O)CSCC(=O)N[C@@H](Cc2ccccc2)C(=O)N[C@@H](Cc2c[nH]c3ccccc23)C(=O)N[C@@H](CC(=O)O)C1=O [compound 2254] ({CH2CO}-FWD[NHexGly]Y[Nle]NRK[Ahp(2)]P[Tle]DC[AEEA][γGlu][AEEA][Aun]-OH; thioether N-14) | 27.9 nM | 
4 | CCCCCCN1CC(=O)N[C@@H](Cc2ccc(O)cc2)C(=O)N[C@@H](CC(C)C)C(=O)N[C@@H](CC(N)=O)C(=O)N[C@@H](CCCNC(=N)N)C(=O)N(C)[C@@H](CC(C)C)C(=O)N[C@@H](CCCCC)C(=O)N2CCC[C@H]2C(=O)N[C@@H](C(C)(C)C)C(=O)N[C@@H](CO)C(=O)N[C@H](C(=O)N[C@@H](CCC(=O)NCCCCCCCCCCC(=O)O)C(=O)O)CSCC(=O)N[C@@H](Cc2ccccc2)C(=O)N[C@@H](Cc2ccc(O)cc2)C(=O)N[C@@H](CC(=O)O)C1=O [Example 2135] ({CH2CO}-FYD[NHexGly]YLNR[NMeL][Ahp(2)]P[Tle]SC[γGlu][Aun]-OH; thioether N-14) | 31 nM | 
5 | CCCCCCN1CC(=O)N[C@@H](Cc2ccc(O)cc2)C(=O)N[C@@H](C(C)C)C(=O)NCC(=O)N[C@@H](CCCNC(=N)N)C(=O)N[C@@H](CC(C)C)C(=O)N[C@@H](CCCCC)C(=O)N2CCC[C@H]2C(=O)N[C@@H](C(C)C)C(=O)N[C@@H](CC(=O)O)C(=O)N[C@H](C(=O)N[C@@H](CO)C(=O)N[C@@H](CCN)C(=O)N[C@@H](CCC(N)=O)C(=O)O)CSCC(=O)N[C@@H](Cc2ccc3ccccc3c2)C(=O)N[C@@H](Cc2ccc(O)cc2)C(=O)N[C@@H](CC(=O)O)C1=O [Example 1166] ({CH2CO}-[2Nal]YD[NHexGly]YVGRL[Ahp(2)]PVDCS[Dab]Q-OH; thioether N-14) |  | IC50 (293T cells expressing mouse VISTA, competition with biotinylated peptide (2 nM), read-out: HC CBA mVISTA IC50): 18.8 nM
6 | CCCCCCN1CC(=O)N[C@@H](Cc2ccc(O)cc2)C(=O)N[C@@H](CC(C)C)C(=O)N[C@@H](CC(N)=O)C(=O)N[C@@H](CCCNC(=N)N)C(=O)N(C)[C@@H](CCCC)C(=O)N[C@@H](CCCCC)C(=O)N2CCC[C@H]2C(=O)N[C@@H](C(C)(C)C)C(=O)N[C@@H](CO)C(=O)N[C@H](C(=O)N[C@@H](CCC(=O)NCCCCCCCCCCC(=O)O)C(=O)O)CSCC(=O)N[C@@H](Cc2ccccc2)C(=O)N[C@@H](Cc2ccc(O)cc2)C(=O)N[C@@H](CC(=O)O)C1=O [Example 2136] ({CH2CO}-FYD[NHexGly]YLNR[NMeNle][Ahp(2)]P[Tle]SC[γGlu][Aun]-OH; thioether N-14) | 19.8 nM | 
7 | CCCCCCN1CC(=O)N[C@@H](Cc2ccc(O)cc2)C(=O)N[C@@H](CCCC)C(=O)N[C@@H](CC(N)=O)C(=O)N[C@@H](CCCNC(=N)N)C(=O)N(C)[C@@H](CCCC)C(=O)N[C@@H](CCCCC)C(=O)N2CCC[C@H]2C(=O)N[C@@H](C(C)(C)C)C(=O)N[C@@H](CO)C(=O)N[C@H](C(=O)N[C@@H](CC(=O)NCCOCCOCC(=O)N[C@@H](CC(=O)O)C(=O)NCCOCCOCC(=O)NCCCCCCCCCCC(=O)O)C(=O)O)CSCC(=O)N[C@@H](Cc2ccccc2)C(=O)N[C@@H](Cc2c[nH]c3ccccc23)C(=O)N[C@@H](CC(=O)O)C1=O [compound 2022] ({CH2CO}-FWD[NHexGly]Y[Nle]NR[NMeNle][Ahp(2)]P[Tle]SC[βAsp][AEEA]D[AEEA][Aun]-OH; thioether N-14) |  | IC50 [1]: 22.7 nM
8 | CCCCCCN1CC(=O)N[C@@H](Cc2ccc(O)cc2)C(=O)N[C@@H](CCCCC)C(=O)NCC(=O)N[C@@H](CCCNC(N)=O)C(=O)N[C@@H](CC(C)C)C(=O)N[C@@H](CCCCC)C(=O)N2CCC[C@H]2C(=O)N[C@@H](C(C)C)C(=O)N[C@@H](CO)C(=O)N[C@H](C(=O)NCC(N)=O)CSCC(=O)N[C@@H](Cc2ccc3ccccc3c2)C(=O)N[C@@H](Cc2ccc(O)cc2)C(=O)N[C@@H](CC(=O)O)C1=O [Ex 1302] ({CH2CO}-[2Nal]YD[NHexGly]Y[Ahp(2)]G[Cit]L[Ahp(2)]PVSCG-NH2; thioether N-14) |  | IC50 (cell-based binding high-content assay, mVISTA, the 16th table, read-out: HC CBA mVISTA IC50): 7.5 nM
9 | C=CCOc1ccc(C[C@@H]2NC(=O)CSC[C@@H](C(=O)NCC(N)=O)NC(=O)[C@H](CO)NC(=O)[C@H](C(C)C)NC(=O)[C@@H]3CCCN3C(=O)[C@H](CCCCC)NC(=O)[C@H](CCCC)N(C)C(=O)[C@H](CCCNC(=N)N)NC(=O)[C@H](CC(N)=O)NC(=O)[C@H](CC(C)C)NC(=O)[C@H](Cc3ccc(O)cc3)NC(=O)CN(CCCCCC)C(=O)[C@H](CC(=O)O)NC(=O)[C@H](Cc3ccc(O)cc3)NC2=O)cc1 [compound 1222] ({CH2CO}-Y(Allyl)YD[NHexGly]YLNR[NMeNle][Ahp(2)]PVSCG-NH2; thioether N-14) | 21.7 nM | 
10 | CCCCCCN1CC(=O)N[C@@H](Cc2ccc(O)cc2)C(=O)N[C@@H](CC(C)C)C(=O)N[C@@H](CC(N)=O)C(=O)N[C@@H](CCCNC(=N)N)C(=O)N(C)[C@@H](C(C)C)C(=O)N[C@@H](CCCCC)C(=O)N2CCC[C@H]2C(=O)N[C@@H](C(C)(C)C)C(=O)N[C@@H](CO)C(=O)N[C@H](C(=O)N[C@@H](CC(=O)NCCOCCOCC(=O)N[C@@H](CC(=O)O)C(=O)NCCOCCOCC(=O)NCCCCCCCCCCC(=O)O)C(=O)O)CSCC(=O)N[C@@H](Cc2ccccc2)C(=O)N[C@@H](Cc2ccc(O)cc2)C(=O)N[C@@H](CC(=O)O)C1=O [compound 2041] ({CH2CO}-FYD[NHexGly]YLNR[NMeV][Ahp(2)]P[Tle]SC[βAsp][AEEA]D[AEEA][Aun]-OH; thioether N-14) |  | IC50 [1]: 29.7 nM
11 | CCCCCCN1CC(=O)N[C@@H](Cc2ccc(O)cc2)C(=O)N[C@@H](CCCC)C(=O)N[C@@H](CC(N)=O)C(=O)N[C@@H](CCCNC(=N)N)C(=O)N[C@@H](CC(C)C)C(=O)N[C@@H](CCCCC)C(=O)N2CCC[C@@H]2C(=O)N[C@@H](C(C)C)C(=O)N[C@@H](CO)C(=O)N[C@H](C(=O)NCC(=O)N[C@@H](CCC(=O)NCCOCCOCC(=O)N[C@@H](CC(=O)O)C(=O)NCCOCCOCC(=O)NCCCCCCCCCCC(=O)O)C(=O)O)CSCC(=O)N[C@@H](Cc2ccc3ccccc3c2)C(=O)N[C@@H](Cc2ccc(O)cc2)C(=O)N[C@@H](CC(=O)O)C1=O [compound 2123] ({CH2CO}-[2Nal]YD[NHexGly]Y[Nle]NRL[Ahp(2)][dP]VSCG[γGlu][AEEA]D[AEEA][Aun]-OH; thioether N-14) | 17.9 nM | 
